Literature values in patent publication US11980625B2, “Ganaxolone for use in treating tuberous sclerosis complex” (Marinus Pharmaceuticals, Inc., priority 2019, dated 2024).
Where two headings read alike, the source gives them in different places.

Columns and labels:
[1] = test system: patients with TSC-related epilepsy; details: Phase 2, open-label, 3 months; cited from earlier work
[2] = test system: patients with TSC-related epilepsy; details: 16 weeks, cited from earlier work
[3] = human plasma; cited from earlier work
[4] = test system: patients with TSC-related epilepsy; details: 18 weeks, cited from earlier work

C=C(C)[C@@H]1CCC(C)=C[C@H]1c1c(O)cc(CCCCC)cc1O [EPIDIOLEX ®]
Median % change in seizure freq (Drug Response) [1]: −48.8%
Median % change in seizure freq (Drug Response) ([2]; Phase 3, 25 mg/kg/day): 25 mg/kg/day: −48.6%
Median % change in seizure freq (Drug Response) ([2]; Phase 3, High-exposure): High-exposure: −47.5%

CC(=O)[C@H]1CC[C@H]2[C@@H]3CC[C@H]4C[C@H](O)CC[C@]4(C)[C@H]3CC[C@]12C [Allopregnanolone, 3α,5α-tetrahydroprogesterone, reference compound]
half-life [3]: about 45 minutes

CO[C@H]1C[C@@H]2CC[C@@H](C)[C@@](O)(O2)C(=O)C(=O)N2CCCC[C@H]2C(=O)O[C@H]([C@H](C)C[C@@H]2CC[C@@H](OCCO)[C@H](OC)C2)CC(=O)[C@H](C)/C=C(\C)[C@@H](O)[C@@H](OC)C(=O)[C@H](C)C[C@H](C)/C=C/C=C/C=C/1C [AFINITOR ®]
Median % change in seizure freq (Drug Response) ([4]; Phase 3, High-exposure): High-exposure: −39.6%
Median % change in seizure freq (Drug Response) ([4]; Phase 3, Low-exposure): Low-exposure: −29.3%
